Assay results reported in ChEMBL document CHEMBL5729293, “Inhibitors of KEAP1-Nrf2 protein-protein interaction” (2022).

Assay: Fluorescence Based Assay: The details of the KEAP1 KELCH ThermoFluor® Assay Construct are as follows: Kelch domain of human KEAP 1 (321-624 aa) was used in the assay. The protein was expressed in E. coli with 6His tag that was cleaved prior to receipt for use.ThermoFluor® experiments were carried out using instruments owned by Janssen Research and Discovery, L.L.C. through its acquisition of 3-Dimensional Pharmaceuticals, Inc. 1,8-ANS (Invitrogen) was used as a fluorescent dye. Protein (KEAP Kelch) and compound solutions were dispensed into black 384-well polypropylene PCR microplates (Abgene) and overlayed with silicone oil (1 μL, Fluka, type DC 200) to prevent evaporation.Reference wells contained KEAP Kelch without compounds, and the assay conditions were as follows: 1.1 μM (0.037mg/mL) KEAP Kelch, 80 μM 1,8-ANS, 25 mM PIPES, pH 7.0, 100 mM NaCl, 0.002% Tween-20.

| Structure (SMILES) | Kd [nM] |
| --- | --- |
| Cc1ccc([C@@H](c2ccn3c(C(F)(F)F)nnc3c2C)C(C)(C)C(=O)O)nc1CN1CC2(CC2)Oc2nc(OCCN3CCCC3)c(C)cc2S1(=O)=O | < 1 |
| Cc1ncc([C@@H](c2ccn3c(C(F)(F)F)nnc3c2C)C(C)(C)C(=O)O)cc1CN1C[C@@H]2CCCCN2c2ncc(C#N)cc2S1(=O)=O | < 1 |
| Cc1cnc([C@@H](c2ccn3c(C(F)F)nnc3c2C)C(C)(C)C(=O)O)cc1CN1CC2(CC2)Oc2nc(OCCN3CCCCC3)c(C)cc2S1(=O)=O | < 1 |
| Cc1cnc([C@@H](c2ccn3c(C(F)F)nnc3c2C)C(C)(C)C(=O)O)cc1CN1CC2(CC2)Oc2nc(OCCN3CCCC3)c(C)cc2S1(=O)=O | < 1 |
| Cc1ccc([C@H](c2ccn3c(C4CC4)nnc3c2C)C(C)(C)C(=O)O)cc1CN1CC2(COC2)Oc2ncccc2S1(=O)=O | < 1 |
| Cc1cnc([C@@H](c2ccn3c(C(F)F)nnc3c2C)C(C)(C)C(=O)O)cc1CN1CC2(CCOCC2)Oc2nc(OCCN3CCCCC3)c(C)cc2S1(=O)=O | < 1 |
| Cc1ccc([C@@H](c2ccn3c(C4CC4)nnc3c2C)C(C)(C)C(=O)O)cc1CN1CC2(CC2)Oc2nc(OCCN3CCCC3)c(C)cc2S1(=O)=O | < 1 |
| Cc1ccc([C@@H](c2ccn3c(C(F)F)nnc3c2C)C(C)(C)C(=O)O)nc1CN1CC2(CCOCC2)Oc2nc(OCCN3CCCC3)c(C)cc2S1(=O)=O | < 1 |
| Cc1cnc2c(c1)S(=O)(=O)N(Cc1cc([C@@H](c3ccn4c(C(F)F)nnc4c3C)C(C)(C)C(=O)O)ccc1C)CC1(COC1)O2 | < 1 |
| Cc1cnc2c(c1)S(=O)(=O)N(Cc1cc([C@H](c3ccc4c(nnn4C4CC4)c3C)C(C)(C)C(=O)O)ccc1C)CC1(CNC1)O2 | < 1 |
| Cc1cnc2c(c1)S(=O)(=O)N(Cc1cc([C@H](c3ccn4c(C5CC5)nnc4c3C)C(C)(C)C(=O)O)ccc1C)CC1(COC1)O2 | < 1 |
| Cc1ccc([C@@H](c2ccn3c(C(F)F)nnc3c2C)C(C)(C)C(=O)O)cc1CN1CC2(COC2)Oc2ncccc2S1(=O)=O | < 1 |
| Cc1cnc2c(c1)S(=O)(=O)N(Cc1cc([C@@H](c3ccc4c(nnn4C4CC4)c3C)C(C)(C)C(=O)O)cnc1C)CC1(COC1)O2 | < 1 |
| Cc1ccc([C@@H](c2ccc3c(nnn3C3CC3)c2C)C(C)(C)C(=O)O)cc1CN1CC2(CC2)Oc2nc(N[C@@H](C)CN3CCCCC3)c(C)cc2S1(=O)=O | < 1 |
| Cc1ccc([C@H](c2ccc3c(nnn3C3CC3)c2C)C(C)(C)C(=O)O)cc1CN1CC2(CCNCC2)Oc2ncccc2S1(=O)=O | < 1 |
| Cc1cnc2c(c1)S(=O)(=O)N(Cc1cc([C@@H](c3ccc4c(nnn4C4CC4)c3C)C(C)(C)C(=O)O)ccc1C)CC1(CCNCC1)O2 | < 1 |
| Cc1ccc([C@@H](c2ccn3c(C(F)(F)F)nnc3c2C)C(C)(C)C(=O)O)cc1CN1CC2(CC2)Oc2nc(OCCN3CCC(F)CC3)c(C)cc2S1(=O)=O | < 1 |
| Cc1cnc([C@@H](c2ccn3c(C(F)F)nnc3c2C)C(C)(C)C(=O)O)cc1CN1CC2(CCOCC2)Oc2nc(OCCN3CCCC3)c(C)cc2S1(=O)=O | < 1 |
| Cc1cc2c(nc1OCCN1CCCC1)OC1(CC1)CN(Cc1cc([C@@H](c3ccc4c(nnn4C4CC4)c3C)C(C)(C)C(=O)O)cnc1C)S2(=O)=O | < 1 |
| Cc1cnc2c(c1)S(=O)(=O)N(Cc1nc([C@@H](c3ccn4c(C(F)F)nnc4c3C)C(C)(C)C(=O)O)ccc1C)CC1(COC1)O2 | < 1 |
| Cc1ncc([C@H](c2ccn3c(C(F)(F)F)nnc3c2C)C(C)(C)C(=O)O)cc1CN1C[C@@H]2CCCCN2c2ncc(C#N)cc2S1(=O)=O | < 1 |
| Cc1ccc([C@@H](c2ccn3c(C(F)(F)F)nnc3c2C)C(C)(C)C(=O)O)cc1CN1CC2(COC2)Oc2ncccc2S1(=O)=O | < 1 |
| Cc1ccc([C@@H](c2ccn3c(C4CC4)nnc3c2C)C(C)(C)C(=O)O)cc1CN1CC2(COC2)Oc2ncccc2S1(=O)=O | < 1 |
| Cc1ccc([C@@H](CC(=O)O)c2ccc3c(nnn3CC3CC3)c2C(F)F)cc1CN1C[C@H]2CCCCN2c2ncccc2S1(=O)=O (single isomer, unassigned) | < 1 |
